# Data reported in US12421225B2, “Heteroaromatic amide derivative and medicament containing the same” (KAKEN PHARMACEUTICAL CO., LTD., priority 2018, dated 2025).
# pIC50: −log10 of the molar value.
# Legend:
# human Nav1.7 = human Nav1.7 (Homo sapiens (Human), UniProt Q15858); assay: Human Nav1.7 inhibitory activity evaluation (automated patch clamp QPatch16X, HEK293A cells stably expressing human Nav1.7 and human Navβ1); assay type: cell-based
# In short: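 IC50 calculated from the concentration-response of inward current evoked by the second −10 mV, 50 ms depolarisation, which follows a 15 s conditioning step at roughly 30-40% inactivation and a 100 ms −120 mV interval. Cells: HEK293A expressing human Nav1.7/Navβ1, automated patch clamp, room temperature, 0.1% DMSO final.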
# human Nav1.5 = human Nav1.5 (Homo sapiens (Human), UniProt Q14524); assay: Human Nav1.5 inhibitory activity evaluation (automated patch clamp QPatch16X, HEK293 cells stably expressing human Nav1.5); assay type: cell-based
# human Nav1.5, sequence (Q14524 whole entry): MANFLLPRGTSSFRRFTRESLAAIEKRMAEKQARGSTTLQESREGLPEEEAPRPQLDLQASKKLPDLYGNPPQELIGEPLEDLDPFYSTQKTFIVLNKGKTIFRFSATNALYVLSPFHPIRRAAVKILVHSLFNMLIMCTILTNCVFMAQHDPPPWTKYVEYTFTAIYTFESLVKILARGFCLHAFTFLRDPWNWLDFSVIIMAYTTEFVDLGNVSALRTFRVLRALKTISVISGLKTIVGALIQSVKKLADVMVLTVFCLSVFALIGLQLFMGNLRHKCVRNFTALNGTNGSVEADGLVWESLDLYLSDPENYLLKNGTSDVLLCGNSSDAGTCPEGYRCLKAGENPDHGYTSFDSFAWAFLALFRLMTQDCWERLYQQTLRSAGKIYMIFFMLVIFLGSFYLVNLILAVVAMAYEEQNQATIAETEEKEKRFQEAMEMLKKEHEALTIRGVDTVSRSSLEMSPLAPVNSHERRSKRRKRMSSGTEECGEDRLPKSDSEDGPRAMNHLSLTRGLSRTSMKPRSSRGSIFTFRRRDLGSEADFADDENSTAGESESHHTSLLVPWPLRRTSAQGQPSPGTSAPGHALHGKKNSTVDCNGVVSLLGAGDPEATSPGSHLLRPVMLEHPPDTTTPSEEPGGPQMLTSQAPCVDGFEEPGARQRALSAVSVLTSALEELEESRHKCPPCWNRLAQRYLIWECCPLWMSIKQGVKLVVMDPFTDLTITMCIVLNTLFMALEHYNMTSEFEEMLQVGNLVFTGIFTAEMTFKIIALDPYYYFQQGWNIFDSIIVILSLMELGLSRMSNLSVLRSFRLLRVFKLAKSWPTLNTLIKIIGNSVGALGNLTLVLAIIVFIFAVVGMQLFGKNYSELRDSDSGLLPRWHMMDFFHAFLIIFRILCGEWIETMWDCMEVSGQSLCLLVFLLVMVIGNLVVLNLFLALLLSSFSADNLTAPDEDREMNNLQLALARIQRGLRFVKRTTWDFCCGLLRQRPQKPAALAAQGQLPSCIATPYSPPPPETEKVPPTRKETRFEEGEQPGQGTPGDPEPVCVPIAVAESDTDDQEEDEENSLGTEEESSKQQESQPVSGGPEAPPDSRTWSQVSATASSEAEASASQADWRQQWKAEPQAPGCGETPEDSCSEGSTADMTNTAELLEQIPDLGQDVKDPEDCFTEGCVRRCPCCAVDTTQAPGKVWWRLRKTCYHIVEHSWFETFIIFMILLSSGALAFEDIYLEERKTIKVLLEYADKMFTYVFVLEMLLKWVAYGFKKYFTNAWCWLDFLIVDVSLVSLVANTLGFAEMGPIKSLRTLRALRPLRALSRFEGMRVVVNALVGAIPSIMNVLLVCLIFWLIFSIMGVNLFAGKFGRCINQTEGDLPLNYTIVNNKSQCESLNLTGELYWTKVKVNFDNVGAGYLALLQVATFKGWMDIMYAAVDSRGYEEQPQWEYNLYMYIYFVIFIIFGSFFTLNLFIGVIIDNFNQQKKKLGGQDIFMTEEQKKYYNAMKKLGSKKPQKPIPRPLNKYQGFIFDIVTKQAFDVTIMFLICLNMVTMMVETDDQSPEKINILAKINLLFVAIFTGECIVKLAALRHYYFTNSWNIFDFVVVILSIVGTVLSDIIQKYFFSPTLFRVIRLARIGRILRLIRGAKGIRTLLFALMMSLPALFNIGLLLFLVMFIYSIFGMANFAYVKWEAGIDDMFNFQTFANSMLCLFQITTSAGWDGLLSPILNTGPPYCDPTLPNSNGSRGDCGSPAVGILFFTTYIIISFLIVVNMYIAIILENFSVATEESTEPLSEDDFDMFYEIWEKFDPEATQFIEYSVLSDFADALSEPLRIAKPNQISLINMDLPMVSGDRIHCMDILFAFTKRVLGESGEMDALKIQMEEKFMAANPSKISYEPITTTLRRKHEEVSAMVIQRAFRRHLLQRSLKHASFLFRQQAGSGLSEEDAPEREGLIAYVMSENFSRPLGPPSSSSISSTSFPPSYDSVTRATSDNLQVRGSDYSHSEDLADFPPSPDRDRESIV
# In short: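 IC50 derived from concentration-response of inward current at the 20th of 20 action-potential-mimicking pulses (holding −80 mV, leak corrected with −100 mV step). HEK293 cells stably expressing human Nav1.5, room temperature, extracellular pH 7.4, intracellular CsF-based pH 7.3, 0.1% DMSO.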
# [1] = human Nav1.7, automated patch clamp
# [2] = human Nav1.5, automated patch clamp
# [3] = HEK293A cells stably expressing human Nav1.7 and human Navβ1, automated patch clamp QPatch16X
# [4] = HEK293 cells stably expressing human Nav1.5, automated patch clamp QPatch16X
# human Nav1.7, sequence (Q15858 whole entry): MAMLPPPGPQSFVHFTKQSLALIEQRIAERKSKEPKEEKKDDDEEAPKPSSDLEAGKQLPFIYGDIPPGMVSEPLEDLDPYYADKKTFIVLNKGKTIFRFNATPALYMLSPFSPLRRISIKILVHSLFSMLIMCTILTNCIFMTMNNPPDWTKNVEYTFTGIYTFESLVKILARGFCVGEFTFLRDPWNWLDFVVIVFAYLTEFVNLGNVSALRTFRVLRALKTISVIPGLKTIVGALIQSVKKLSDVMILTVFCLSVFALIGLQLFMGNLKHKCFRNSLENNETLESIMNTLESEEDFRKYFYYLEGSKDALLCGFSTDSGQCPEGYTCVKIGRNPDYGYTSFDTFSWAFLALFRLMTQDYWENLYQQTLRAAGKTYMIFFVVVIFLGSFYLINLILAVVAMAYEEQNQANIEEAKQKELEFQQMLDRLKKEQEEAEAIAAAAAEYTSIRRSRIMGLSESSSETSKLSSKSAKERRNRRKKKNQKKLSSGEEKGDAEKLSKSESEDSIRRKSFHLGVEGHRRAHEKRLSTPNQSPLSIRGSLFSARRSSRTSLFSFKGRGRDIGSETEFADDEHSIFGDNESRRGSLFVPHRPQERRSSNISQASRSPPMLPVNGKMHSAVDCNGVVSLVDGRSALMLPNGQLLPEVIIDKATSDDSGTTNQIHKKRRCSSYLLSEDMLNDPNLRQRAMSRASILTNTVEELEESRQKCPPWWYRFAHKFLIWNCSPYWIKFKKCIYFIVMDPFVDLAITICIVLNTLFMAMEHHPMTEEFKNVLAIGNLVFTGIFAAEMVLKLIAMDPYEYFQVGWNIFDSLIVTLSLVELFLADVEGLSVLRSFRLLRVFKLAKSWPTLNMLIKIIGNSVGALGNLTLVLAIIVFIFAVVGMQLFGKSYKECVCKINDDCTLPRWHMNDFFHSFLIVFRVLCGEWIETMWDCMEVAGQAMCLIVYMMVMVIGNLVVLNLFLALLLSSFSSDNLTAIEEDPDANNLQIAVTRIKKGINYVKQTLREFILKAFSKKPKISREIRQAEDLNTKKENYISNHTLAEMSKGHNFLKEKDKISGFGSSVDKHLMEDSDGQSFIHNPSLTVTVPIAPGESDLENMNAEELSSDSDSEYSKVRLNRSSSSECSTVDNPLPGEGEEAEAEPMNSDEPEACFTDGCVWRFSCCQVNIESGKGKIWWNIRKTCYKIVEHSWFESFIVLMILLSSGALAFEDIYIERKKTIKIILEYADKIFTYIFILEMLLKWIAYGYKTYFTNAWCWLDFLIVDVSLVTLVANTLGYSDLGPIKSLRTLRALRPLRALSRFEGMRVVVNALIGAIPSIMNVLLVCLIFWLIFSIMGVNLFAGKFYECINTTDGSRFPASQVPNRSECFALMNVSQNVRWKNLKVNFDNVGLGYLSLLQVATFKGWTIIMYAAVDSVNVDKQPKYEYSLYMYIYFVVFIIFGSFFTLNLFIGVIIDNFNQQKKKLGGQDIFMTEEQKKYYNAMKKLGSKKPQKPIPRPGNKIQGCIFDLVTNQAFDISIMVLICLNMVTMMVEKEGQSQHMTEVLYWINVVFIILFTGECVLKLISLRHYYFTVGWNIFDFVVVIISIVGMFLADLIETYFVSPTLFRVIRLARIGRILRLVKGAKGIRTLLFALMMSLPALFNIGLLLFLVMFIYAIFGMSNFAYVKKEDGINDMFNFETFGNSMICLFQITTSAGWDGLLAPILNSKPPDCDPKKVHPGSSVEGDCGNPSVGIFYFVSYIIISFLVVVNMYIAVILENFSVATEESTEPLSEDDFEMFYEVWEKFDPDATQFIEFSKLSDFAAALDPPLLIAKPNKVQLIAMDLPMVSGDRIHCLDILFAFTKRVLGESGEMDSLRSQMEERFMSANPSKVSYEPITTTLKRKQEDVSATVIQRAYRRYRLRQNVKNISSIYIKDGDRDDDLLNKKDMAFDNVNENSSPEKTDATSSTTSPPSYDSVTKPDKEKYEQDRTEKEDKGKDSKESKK
# human Nav1.7, sequence (Q07699 19-218 partner): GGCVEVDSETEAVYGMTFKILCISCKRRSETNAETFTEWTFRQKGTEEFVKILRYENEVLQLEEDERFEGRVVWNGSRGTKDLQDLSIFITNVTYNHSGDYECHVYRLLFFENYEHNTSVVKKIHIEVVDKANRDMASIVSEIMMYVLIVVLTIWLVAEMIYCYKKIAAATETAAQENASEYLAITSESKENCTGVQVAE
Compound,pIC50 (human Nav1.7; [1]),pIC50 (human Nav1.5; [2]),pIC50 (human Nav1.7; [3]),pIC50 (human Nav1.5; [4])
"N#Cc1ccc2c(c1)C[C@@H](NC(=O)c1cc3n(n1)CC(CSCC(F)(F)F)O3)CO2 (single isomer, unassigned) [200 (isomer B)]",> 6.00,≤ 5.52,–,–
O=C(N[C@H]1COc2ccc(-c3ccccn3)cc2C1)c1cc2n(n1)CCC(COCC(F)(F)F)O2 (some centres unmarked) [Example 130],–,–,> 5.00,≤ 5.52
"O=C(N[C@H]1COc2ccc(CC(F)F)cc2C1)c1cc2n(n1)CC(COC(F)(F)F)O2 (single isomer, unassigned) [198 (isomer B)]",> 6.00,≤ 5.52,–,–
"O=C(N[C@H]1COc2ccc(COCC(F)(F)F)cc2C1)c1cc2n(n1)CC(CCNCC(F)(F)F)O2 (single isomer, unassigned) [232 (isomer B)]",> 6.00,≤ 5.52,–,–
CC(C)(C)C1CCc2nc(C(=O)N[C@H]3COc4ccccc4C3)cn2C1 (some centres unmarked) [Example 36],–,–,> 6.00,≤ 5.52
O=C(N[C@H]1COc2ccc(Cl)cc2C1)c1cc2n(n1)CCC(c1cccnc1)O2 (some centres unmarked) [Example 358],> 5.00,≤ 5.52,–,–
"O=C(N[C@H]1COc2ccc(COCC(F)(F)F)cc2C1)c1cc2n(n1)CC(COC(F)(F)F)O2 (single isomer, unassigned) [196 (isomer A)]",> 6.00,5.52 to 6.00,–,–
"O=C(N[C@H]1COc2ccc(Cl)cc2C1)c1cn2c(n1)CCC(C(F)(F)F)C2 (single isomer, unassigned) [Example 2 (isomer B)]",–,–,> 6.00,≤ 5.52
"N#Cc1ccc2c(c1)C[C@@H](NC(=O)c1cc3n(n1)CC(CCOCC1CC1)O3)CO2 (stereo partly drawn) [Example 201, N—((R)-6-cyanochroman-3-yl)-2-(2-(cyclopropylmethoxy)ethyl)-2,3-dihydropyrazolo[5,1-b]oxazole-6-carboxamide]",> 6.00,5.52 to 6.00,–,–
O=C(N[C@H]1COc2ccc(Cl)cc2C1)c1cc2n(n1)CCC(C(F)F)O2 (some centres unmarked) [Example 157],> 5.00,≤ 5.52,–,–
"N#Cc1ccc2c(c1)C[C@@H](NC(=O)c1cc3n(n1)CCN(Cc1ccc(F)cc1)C3)CO2 [Example 268, (R)—N-(6-cyanochroman-3-yl)-5-(4-fluorobenzyl)-4,5,6,7-tetrahydropyrazolo[1,5-a]pyrazine-2-carboxamide]",> 6.00,≤ 5.52,–,–
N#Cc1ccc2c(c1)C[C@@H](NC(=O)c1cc3n(n1)CC(COc1ccccn1)O3)CO2 (some centres unmarked) [Example 450],> 5.00,≤ 5.52,–,–
N#Cc1ccc2c(c1)C[C@@H](NC(=O)c1cc3n(n1)CCN(C1(c4ccc(F)cc4)CC1)C3)CO2 [Example 282],> 6.00,5.52 to 6.00,–,–
CC(C)(C)N1CCn2nc(C(=O)N[C@H]3COc4ccc(Cl)cc4C3)cc2C1 [Example 281],> 5.00,≤ 5.52,–,–
"O=C(N[C@H]1COc2ccc(C(F)(F)F)cc2C1O)c1cc2n(n1)CC[C@H](COCC1CC1)O2 (single isomer, unassigned; isomer a) [575(isomer A)]",> 6.00,5.52 to 6.00,–,–
COc1ccc(CCC2CCc3nc(C(=O)N4CCC(c5ccccc5)C4)cn3C2)cn1 (centres unmarked) [Example 317],> 5.00,≤ 5.52,–,–
N#Cc1ccc(N2CCn3nc(C(=O)N[C@H]4COc5ccc(Cl)cc5C4)cc3C2)nc1 [Example 280],> 5.00,> 6.00,–,–
CCCC1CCn2nc(C(=O)N[C@H]3COc4ccc(C#N)cc4C3)cc2O1 (some centres unmarked) [Example 94],–,–,> 6.00,5.52 to 6.00
"O=C(N[C@H]1COc2ccc(Cl)cc2C1)c1cc2n(n1)CCC(C(F)F)O2 (single isomer, unassigned) [158 (isomer A)]",> 6.00,≤ 5.52,–,–
CC1(C)CCn2nc(C(=O)N[C@H]3COc4ccc(Cl)cc4C3)cc2O1 [Example 177],> 6.00,5.52 to 6.00,–,–
O=C(N[C@H]1COc2ccc(-c3cncs3)cc2C1)c1cc2n(n1)CCC(COCC1CC1)O2 (some centres unmarked) [Example 428],> 6.00,≤ 5.52,–,–
"O=C(N[C@H]1COc2ccc(CC(F)F)cc2C1)c1cc2n(n1)CCC(COC(F)(F)F)O2 (single isomer, unassigned) [136 (isomer B)]",–,–,> 6.00,5.52 to 6.00

Compound,pIC50 (human Nav1.7; [1]),pIC50 (human Nav1.5; [2]),pIC50 (human Nav1.7; [3]),pIC50 (human Nav1.5; [4])
CCNc1cccc(C2CCc3nc(C(=O)N4CCC(c5ccccc5)C4)cn3C2)n1 (centres unmarked) [Example 308],> 5.00,5.52 to 6.00,–,–
O=C(N[C@H]1COc2ccc(CC(F)F)cc2C1)c1cc2n(n1)CCC(COC(F)F)O2 (some centres unmarked) [Example 137],–,–,> 6.00,≤ 5.52
"O=C(N[C@H]1COc2ccc(COCC(F)(F)F)cc2C1)c1cc2n(n1)CCC(COC(F)F)O2 (single isomer, unassigned) [140 (isomer A)]",> 6.00,≤ 5.52,–,–
"O=C(N[C@H]1COc2ccc(Cl)cc2C1)c1cc2n(n1)CC(CCNCC(F)(F)F)O2 (single isomer, unassigned) [226 (isomer A)]",> 6.00,≤ 5.52,–,–
CCC1CCc2nc(C(=O)N[C@H]3COc4ccccc4C3)cn2C1 (some centres unmarked) [Example 23],–,–,> 5.00,≤ 5.52
"O=C(N[C@H]1COc2ccc(COCC(F)(F)F)cc2C1)c1cc2n(n1)CCC(COCC(F)(F)F)O2 (mixture of isomers) [Example 128, 5-((2,2,2-trifluoroethoxy)methyl)-N—((R)-6-((2,2,2-trifluoroethoxy)methyl)chroman-3-yl)-6,7-dihydro-5H-pyrazolo[5,1-b][1,3]oxazine-2-carboxamide]",–,–,> 6.00,5.52 to 6.00
O=C(N[C@H]1COc2ccc(C(F)(F)F)cc2C1)c1cc2n(n1)CCC(C#CC1CC1)O2 (some centres unmarked) [Example 402],> 6.00,≤ 5.52,–,–
"O=C(N[C@H]1COc2ccc(Cl)cc2C1)c1cc2n(n1)CCC(OCC(F)(F)F)CO2 (single isomer, unassigned) [256 (isomer B)]",> 6.00,5.52 to 6.00,–,–
"N#Cc1ccc2c(c1)C[C@@H](NC(=O)c1cc3n(n1)CCC(COCC(F)(F)F)O3)CO2 (mixture of isomers) [Example 114, N—((R)-6-cyanochroman-3-yl)-5-((2,2,2-trifluoroethoxy)methyl)-6,7-dihydro-5H-pyrazolo[5,1-b][1,3]oxazine-2-carboxamide]",–,–,> 5.00,≤ 5.52
O=C(N[C@H]1COc2ccc(COc3ccccn3)cc2C1)c1cc2n(n1)CCC(C(F)(F)F)O2 (some centres unmarked) [Example 392],> 6.00,5.52 to 6.00,–,–
"COc1cccc(-c2c(C(=O)N[C@H]3COc4ccc(Cl)cc4C3)nc3n2CCCC3)n1 [Example 17, (R)—N-(6-chlorochroman-3-yl)-3-(6-methoxypyridin-2-yl)-5,6,7,8-tetrahydroimidazo[1,2-a]pyridine-2-carboxamide]",–,–,> 6.00,5.52 to 6.00
O=C(N[C@H]1COc2ccc(Cl)cc2C1)c1cc2n(n1)CC(CCn1cccn1)O2 (some centres unmarked) [Example 451],> 6.00,5.52 to 6.00,–,–
N#Cc1ccc2c(c1)C[C@@H](NC(=O)c1cc3n(n1)CCC(COc1ccccc1)O3)CO2 (some centres unmarked) [Example 118],–,–,> 6.00,> 6.00
"N#Cc1ccc2c(c1)C(F)[C@@H](NC(=O)c1cc3n(n1)CCC(COCC1CC1)O3)CO2 (single isomer, unassigned) [617 (isomer C)]",> 5.00,≤ 5.52,–,–
"CCCC1CCn2nc(C(=O)N[C@H]3COc4ccc(C#N)cc4C3)cc2O1 (single isomer, unassigned) [95 (isomer A)]",–,–,> 6.00,≤ 5.52
C[C@@H]1CN(c2cccc(C3CCc4nc(C(=O)N5CCC(c6ccccc6)C5)cn4C3)n2)C[C@H](C)O1 (some centres unmarked) [Example 311],> 5.00,≤ 5.52,–,–
O=C(N[C@H]1COc2ccc(C(F)F)cc2C1)c1cn2c(n1)CCC(C(F)(F)F)C2 (some centres unmarked) [Example 6],–,–,> 5.00,5.52 to 6.00
"O=C(N[C@H]1COc2ccccc2C1)c1nc2n(c1I)CC(C(F)(F)F)CC2 (stereo partly drawn) [Example 14, N—((R)-chroman-3-yl)-3-iodo-6-(trifluoromethyl)-5,6,7,8-tetrahydroimidazo[1,2-a]pyridine-2-carboxamide]",–,–,> 5.00,≤ 5.52
"O=C(N[C@H]1COc2ccc(-c3ccccn3)cc2C1)c1cc2n(n1)CCC(COCC(F)(F)F)O2 (single isomer, unassigned) [131 (isomer B)]",–,–,> 5.00,≤ 5.52
COc1ncccc1C1CCc2nc(C(=O)N3CCC(c4ccccc4)C3)cn2C1 (centres unmarked) [Example 26],–,–,> 5.00,≤ 5.52
O=C(N[C@H]1COc2ccc(-c3cnccn3)cc2C1)c1cc2n(n1)CCC(COCC1CC1)O2 (some centres unmarked) [Example 425],> 6.00,≤ 5.52,–,–
